Consider 20 compounds from ChEMBL document CHEMBL5385876, “Discovery of unglycosylated indolocarbazoles as ROCK2 isoform-selective inhibitors for the treatment of breast cancer metastasis” (Eur J Med Chem, 2023).

The structures appear in SMILES notation. Where a name gives a salt, the structure may show the parent alone.

For the first data set, the target named is Rho-associated protein kinase 2 (Homo sapiens, UniProt O75116). The data set can be described thus: Inhibition of N-terminal His10-StrepII tagged human ROCK2 catalytic domain (1 to 553 residues) expressed in Sf9 insect cells by HTRF assay.
Rho-associated protein kinase 2, sequence (O75116 whole entry, the tested form may be a part): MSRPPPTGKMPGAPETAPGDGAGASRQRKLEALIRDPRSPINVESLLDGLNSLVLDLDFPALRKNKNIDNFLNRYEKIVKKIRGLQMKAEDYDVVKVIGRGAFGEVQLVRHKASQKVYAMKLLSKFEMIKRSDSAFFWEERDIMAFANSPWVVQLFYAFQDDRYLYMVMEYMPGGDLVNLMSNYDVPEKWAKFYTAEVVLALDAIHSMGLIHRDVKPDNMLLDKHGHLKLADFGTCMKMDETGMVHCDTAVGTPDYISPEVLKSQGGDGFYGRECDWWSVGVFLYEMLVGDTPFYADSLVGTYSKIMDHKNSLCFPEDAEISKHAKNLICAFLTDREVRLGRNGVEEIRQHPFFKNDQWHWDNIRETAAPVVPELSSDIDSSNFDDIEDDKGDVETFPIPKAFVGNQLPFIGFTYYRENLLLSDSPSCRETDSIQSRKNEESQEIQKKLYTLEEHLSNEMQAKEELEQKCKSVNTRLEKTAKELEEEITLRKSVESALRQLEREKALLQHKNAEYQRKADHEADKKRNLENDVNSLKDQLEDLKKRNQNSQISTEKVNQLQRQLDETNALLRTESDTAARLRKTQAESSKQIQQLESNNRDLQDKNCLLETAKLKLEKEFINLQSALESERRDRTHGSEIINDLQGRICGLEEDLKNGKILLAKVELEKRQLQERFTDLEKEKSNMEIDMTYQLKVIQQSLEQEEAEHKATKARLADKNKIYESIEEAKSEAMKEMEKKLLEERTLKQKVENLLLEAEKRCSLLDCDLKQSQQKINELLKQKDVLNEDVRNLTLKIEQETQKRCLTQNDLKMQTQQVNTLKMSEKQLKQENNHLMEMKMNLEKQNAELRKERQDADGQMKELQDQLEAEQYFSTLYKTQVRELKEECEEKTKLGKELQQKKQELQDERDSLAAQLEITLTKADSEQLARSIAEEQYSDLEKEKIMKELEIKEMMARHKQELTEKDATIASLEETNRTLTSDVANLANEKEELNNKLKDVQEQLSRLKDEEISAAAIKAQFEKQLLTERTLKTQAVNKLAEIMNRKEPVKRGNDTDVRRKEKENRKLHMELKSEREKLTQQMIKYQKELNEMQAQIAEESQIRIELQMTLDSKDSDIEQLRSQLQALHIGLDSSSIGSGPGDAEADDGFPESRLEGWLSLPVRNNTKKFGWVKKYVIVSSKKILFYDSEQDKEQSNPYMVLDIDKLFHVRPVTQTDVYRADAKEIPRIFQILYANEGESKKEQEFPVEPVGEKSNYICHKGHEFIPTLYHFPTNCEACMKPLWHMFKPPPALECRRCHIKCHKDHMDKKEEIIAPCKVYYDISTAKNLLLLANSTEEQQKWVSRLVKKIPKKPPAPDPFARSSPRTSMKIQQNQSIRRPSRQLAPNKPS
Conditions: not given
In general terms: Time-resolved FRET reads energy transfer from a long-lived donor to a nearby acceptor.
Turning to `COC(=O)c1cccc2c1NC1(C[C@H]3O[C@]1(C)n1c4ccccc4c4c5c(c6c7ccccc7n3c6c41)C(=O)NC5)C(=O)O2` (stereo partly specified), the IC50 is over 500 nM. Take `CC(C)(C)c1ccc2[nH]c3c4[nH]c5ccccc5c4c4c(c3c2c1)CNC4=O`: the IC50 was over 500 nM.

For the compound `COC1=C(C)O[C@@H]2C[C@@]1(OC)n1c3ccccc3c3c4c(c5c6ccccc6n2c5c31)C(=O)NC4`, the IC50 is over 500 nM. Still for that read-out and setting: next, `CC(=O)N[C@H]1C[C@H](n2c3ccccc3c3c4c(c5c6ccccc6[nH]c5c32)CNC4=O)O[C@@H](C)[C@@H]1O`: 210 nM; `CO[C@H]1NC(=O)c2c1c1c3ccccc3n3c1c1c2c2ccccc2n1[C@@H]1O[C@@]3(C)[C@H](OC)[C@@H](O)[C@H]1O`: over 500 nM. In turn, `CO[C@@H]1[C@@H](O)[C@@H](O)[C@H]2O[C@]1(C)n1c3ccccc3c3c4c(c5c6ccccc6n2c5c31)C(=O)N[C@H]4O` had an IC50 of over 500 nM.

Consider `Cc1ccc2[nH]c3c4[nH]c5ccccc5c4c4c(c3c2c1)C(=O)NC4`, for which the IC50 stood at 550 nM.

For `CO[C@@H]1[C@@H](O)[C@@H](O)[C@H]2O[C@]1(C)n1c3ccccc3c3c4c(c5c6ccccc6n2c5c31)C(=O)N[C@H]4OC`, the IC50 was over 500 nM. Same read-out and setting: next, `COc1ccc2c(c1)c1c3c(c4c5ccccc5n(C)c4c1n2C)C(=O)N(C)C3=O`: over 500 nM. The same measure, in the same setting: next, `COc1cc(/C=C(/C(N)=O)n2c3ccccc3c3c4c(c5c6ccccc6[nH]c5c32)CNC4=O)ccc1O`: 2120 nM; `O=C1NC(=O)c2c1c1c3ccccc3[nH]c1c1[nH]c3ccccc3c21` [STAUROSPORINE AGLYCON]: over 500 nM. `COc1cccc2c1[nH]c1c3[nH]c4ccccc4c3c3c(c21)C(=O)NC3=O` displayed an IC50 of over 500 nM. The compound `O=C1NC(=O)c2c1c1c3ccccc3[nH]c1c1[nH]c3c(O)cccc3c21` showed an IC50 of over 500 nM. The compound `CNC(=O)C[C@H]1O[C@@](C)(C(=O)OC)n2c3ccccc3c3c4c(c5c6ccccc6n1c5c32)C(=O)NC4` registered an IC50 of 2720 nM. Same read-out and setting: next, `C[C@@H]1O[C@@H](n2c3ccccc3c3c4c(c5c6ccccc6[nH]c5c32)[C@H](O)NC4=O)[C@H](O)[C@H](O)[C@H]1O`: over 500 nM; `CO[C@@H]1[C@H](N)C[C@H]2O[C@]1(C)n1c3ccccc3c3c4c(c5c6ccccc6n2c5c31)C(=O)NC4=O`: 360 nM; `Cc1ccc2[nH]c3c4[nH]c5ccccc5c4c4c(c3c2c1)C(=O)NC4=O`: over 500 nM. As for `CC1NC(=O)c2c1c1c3ccccc3[nH]c1c1[nH]c3ccccc3c21` (stereo unspecified), the IC50 worked out at 8220 nM.

Tested on in the next data set: not listed separately
Description: Toxicity in BALB/c nude mouse xenografted with human MDA-MB-231 cells harboring Luc-mcherry assessed as reduction in body weight at 15 mg/kg, iv administered once a day for 45 days. The following applies: in vivo, 1080 h, time 45 day. The class given is organism-based.
For the compound `C[C@@H](N)[C@H]1CC[C@H](C(=O)Nc2ccncc2)CC1` [Y-27632], the Activity entry is on record as “Non-Toxic”.

The test system of a further data set is MDA-MB-231. The data set can be described thus: Antiproliferative activity against human MDA-MB-231 cells assessed as suppression of cell growth incubated for 72 hrs by SRB assay. The following applies: MDA-MB-231, 72 h. In kind it is functional, cell-based. (In general: Sulforhodamine B stains cellular protein and so reports cell mass.)
For `COc1cccc2c1C(=O)c1c(O)c3c(c(O)c1C2=O)C[C@@](O)(C(=O)CO)C[C@@H]3O[C@H]1C[C@H](N)[C@H](O)[C@H](C)O1` [DOXORUBICIN HYDROCHLORIDE], the IC50 was determined as 1010 nM.

Another data set relates to SK-OV-3. Description: Antiproliferative activity against human SK-OV-3 cells assessed as suppression of cell growth incubated for 72 hrs by SRB assay. In kind it is functional, cell-based. The note with it: SK-OV-3, 72 h.
On to `COc1cccc2c1C(=O)c1c(O)c3c(c(O)c1C2=O)C[C@@](O)(C(=O)CO)C[C@@H]3O[C@H]1C[C@H](N)[C@H](O)[C@H](C)O1` [DOXORUBICIN HYDROCHLORIDE], for which the IC50 was 480 nM.

What is called IC50 is the concentration at which inhibition is half-maximal.
